Data from patent US20240277693A1, “A PHARMACEUTICAL PRODUCT CONTAINING TASQUINIMOD AND A METHOD FOR ASSESSING THE PURITY OF SAID PRODUCT” (ACTIVE BIOTECH AB, priority 2021, published 2024).

What was measured:
[1] = Stability testing of capsules at 25° C./60% RH in water impermeable blister pack; assay type: physicochemical
From the text: (§1) In some embodiments, the method disclosed herein comprises storing (keeping) a sample of the pharmaceutical product for a period of time, preferably under selected conditions of temperature and humidity. The amount (or concentration) of tasquinimod and of at least one of compounds I, II, III and IV in the sample may preferably be determined at the beginning or before the storage period and at the end of the storage period. The selected storage conditions may include a temperature in the range of, for example, 20° C. to 40° C., and a relative humidity in the surrounding atmosphere in the range of, for example, 30% to 75%; e.g. 25° C. and 60% RH, or 30° C. and 65% RH, or 35° C. and 70% RH, or 40° C. and 75% RH. The storage period may extend over a time period in the range of, for example, several weeks to several years. For example, the stability testing period (“storage period”) may be 2 weeks, 3 weeks, 1 month, 2 months, 3 months, 4 months, 5 months, 6 months, 9 months, 1 year, 18 months, 2 years, 3 years, 4 years or even 5 years or longer. A shorter storage period may be selected by use of higher storage temperature and/or higher relative humidity (RH). The total amount of a tasquinimod decomposition product in the sample at the end of the storage period may be determined by, for example, HPLC.
The batch of capsules manufactured in Example 19 was assessed by determining the amount of tasquinimod and the amount of each one of compounds I, II, III and IV in a sample of the capsules at the end of a 3-month stability testing, whereby the criterion for approving the batch was that the capsules of the sample, at the end of the 3-month stability testing, contain a total amount of compounds I-IV of not more than 5.0% w/w, relative to the amount of tasquinimod in the capsules. The stability testing consisted of keeping the capsules, in a water impermeable blister pack, at 25° C./60% RH. At the end of the stability testing, the capsules contained 0.06% w/w of compound I, less than 0.05% w/w of compound II, 0.10% of compound III and less than 0.05% w/w of compound IV, relative to the amount of tasquinimod (determined to be 0.246 mg/capsule), viz. in total less than 0.26% w/w of compounds I-IV relative to the amount of tasquinimod. Therefore, according to the selected criterion for approval, the batch of capsules was determined to be suitable for distribution.
(§2) The obtained batch of capsules was subjected to multiple assessments, viz. a first assessment comprising determining the amount of tasquinimod and the amount of compounds I, II, III and IV in a sample of the capsules directly after manufacturing, whereby the selected criterion for approving the batch for distribution was that the capsules of the sample, in a water impermeable blister pack, contain not more than in total 5% w/w of compounds I-IV relative to the amount of tasquinimod, followed by eight further, independent assessments, by determining the amount of tasquinimod and the amount of each one of compounds I, II, III and IV in a sample of the capsules at the end of a period of stability testing (by keeping the capsules, in a water impermeable blister pack, at 25° C./60% RH) of 3, 6, 9, 12, 18, 24, 36 and 48 months, respectively, whereby each time the criterion for approving the batch was that the capsules of the sample, at the end of each period of stability testing, contain a total amount of compounds I-IV of not more than 5.0% w/w, relative to the amount of tasquinimod in the capsules.

[2] = Assessment of capsules after manufacture: amount of tasquinimod and of decomposition products; assay type: physicochemical; details: for amount of tasquinimod in capsules / amount of compound III in capsules, relative to the amount of tasquinimod: after manufacture; for Tasquinimod (mg/capsule) / Decomposition products (% w/w), relative to the amount of tasquinimod in capsule: 0 months (after manufacturing)
From the text: as §1
The obtained batch of capsules was assessed by determining the amount of tasquinimod and the amount of compound III in a sample of the capsules. The selected criterion for approving the batch was that the capsules of the sample contain not more than 1.0% w/w of compound III relative to the amount of tasquinimod. […] Therefore, according to the selected criterion for approval, the batch of capsules was determined to be suitable for distribution.
The obtained batch of capsules was assessed by determining the amount of tasquinimod and the amount of compounds I, II, III and IV in a sample of the capsules. The selected criterion for approving the batch was that the capsules of the sample contain not more than in total 5% w/w of compounds I-IV relative to the amount of tasquinimod. […] Therefore, according to the selected criterion for approval, the batch of capsules was determined to be suitable for distribution.
as §2

[3] = 0.25 mg capsules of Example 19, 3 months
[4] = 0.25 mg capsules of Example 19, 6 months
[5] = 0.25 mg capsules of Example 19, 9 months
[6] = 0.25 mg capsules of Example 19, 12 months
[7] = 0.25 mg capsules of Example 19, 18 months
[8] = 0.25 mg capsules of Example 19, 24 months
[9] = 0.25 mg capsules of Example 19, 36 months
[10] = 0.25 mg capsules of Example 19, 48 months
[11] = 0.5 mg capsules of Example 28, 3 months
[12] = 0.5 mg capsules of Example 28, 6 months
[13] = 0.5 mg capsules of Example 28, 9 months
[14] = 0.5 mg capsules of Example 28, 12 months
[15] = 0.5 mg capsules of Example 28, 18 months
[16] = 0.5 mg capsules of Example 28, 24 months
[17] = 0.5 mg capsules of Example 28, 36 months
[18] = 0.5 mg capsules of Example 28, 48 months
[19] = 1.0 mg capsules of Example 29, 3 months
[20] = 1.0 mg capsules of Example 29, 6 months
[21] = 1.0 mg capsules of Example 29, 9 months
[22] = 1.0 mg capsules of Example 29, 12 months
[23] = 1.0 mg capsules of Example 29, 18 months
[24] = 1.0 mg capsules of Example 29, 24 months
[25] = 1.0 mg capsules of Example 29, 36 months
[26] = 1.0 mg capsules of Example 29, 48 months

SMILES: COc1cccc2c1c(O)c(C(=O)N(C)c1ccc(C(F)(F)F)cc1)c(=O)n2C [Tasquinimod, 4-hydroxy-5-methoxy-N, 1-dimethyl-2-oxo-N-[4-(trifluoromethyl)phenyl]-1,2-dihydroquinoline-3-carboxamide]
- amount of tasquinimod in capsules [1, 3]: 0.246 mg/capsule
- amount of tasquinimod in capsules [1, 4]: 0.243 mg/capsule
- amount of tasquinimod in capsules [1, 5]: 0.243 mg/capsule
- amount of tasquinimod in capsules [1, 6]: 0.245 mg/capsule
- amount of tasquinimod in capsules [1, 7]: 0.245 mg/capsule
- amount of tasquinimod in capsules [1, 8]: 0.237 mg/capsule
- amount of tasquinimod in capsules [1, 9]: 0.237 mg/capsule
- amount of tasquinimod in capsules [1, 10]: 0.238 mg/capsule
- Tasquinimod (mg/capsule) [1, 11]: 0.501 mg/capsule
- Tasquinimod (mg/capsule) [1, 12]: 0.497 mg/capsule
- Tasquinimod (mg/capsule) [1, 13]: 0.504 mg/capsule
- Tasquinimod (mg/capsule) [1, 14]: 0.500 mg/capsule
- Tasquinimod (mg/capsule) [1, 15]: 0.501 mg/capsule
- Tasquinimod (mg/capsule) [1, 16]: 0.486 mg/capsule
- Tasquinimod (mg/capsule) [1, 17]: 0.490 mg/capsule
- Tasquinimod (mg/capsule) [1, 18]: 0.494 mg/capsule
- Tasquinimod (mg/capsule) [1, 19]: 0.989 mg/capsule
- Tasquinimod (mg/capsule) [1, 20]: 0.988 mg/capsule
- Tasquinimod (mg/capsule) [1, 21]: 1.007 mg/capsule
- Tasquinimod (mg/capsule) [1, 22]: 0.992 mg/capsule
- Tasquinimod (mg/capsule) [1, 23]: 0.982 mg/capsule
- Tasquinimod (mg/capsule) [1, 24]: 0.997 mg/capsule
- Tasquinimod (mg/capsule) [1, 25]: 1.000 mg/capsule
- Tasquinimod (mg/capsule) [1, 26]: 0.987 mg/capsule
- amount of tasquinimod in capsules ([2]; 0.25 mg capsules of Example 10): 0.252 mg/capsule
- amount of tasquinimod in capsules ([2]; 0.25 mg capsules of Example 13): 0.256 mg/capsule
- amount of tasquinimod in capsules ([2]; 0.25 mg capsules of Example 19): 0.244 mg/capsule
- amount of tasquinimod in capsules ([2]; 0.5 mg capsules of Example 7): 0.498 mg/capsule
- Tasquinimod (mg/capsule) ([2]; 0.5 mg capsules of Example 28): 0.500 mg/capsule
- amount of tasquinimod in capsules ([2]; 1 mg capsules of Example 2): 1.05 mg/capsule
- amount of tasquinimod in capsules ([2]; 1 mg capsules of Example 16): 0.994 mg/capsule
- Tasquinimod (mg/capsule) ([2]; 1.0 mg capsules of Example 29): 0.992 mg/capsule

SMILES: COc1cccc2c1c(O)cc(=O)n2C [Compound III, 4-hydroxy-5-methoxy-1-methylquinolin-2(1H)-one]
- amount of decomposition product (each of compounds I-IV) in capsules, relative to the amount of tasquinimod [1, 3]: 0.10 % w/w
- amount of decomposition product (each of compounds I-IV) in capsules, relative to the amount of tasquinimod [1, 4]: 0.16 % w/w
- amount of decomposition product (each of compounds I-IV) in capsules, relative to the amount of tasquinimod [1, 5]: 0.21 % w/w
- amount of decomposition product (each of compounds I-IV) in capsules, relative to the amount of tasquinimod [1, 6]: 0.26 % w/w
- amount of decomposition product (each of compounds I-IV) in capsules, relative to the amount of tasquinimod [1, 7]: 0.35 % w/w
- amount of decomposition product (each of compounds I-IV) in capsules, relative to the amount of tasquinimod [1, 8]: 0.41 % w/w
- amount of decomposition product (each of compounds I-IV) in capsules, relative to the amount of tasquinimod [1, 9]: 0.57 % w/w
- amount of decomposition product (each of compounds I-IV) in capsules, relative to the amount of tasquinimod [1, 10]: 0.79 % w/w
- Decomposition products (% w/w), relative to the amount of tasquinimod in capsule [1, 11]: 0.05 % w/w
- Decomposition products (% w/w), relative to the amount of tasquinimod in capsule [1, 12]: 0.09 % w/w
- Decomposition products (% w/w), relative to the amount of tasquinimod in capsule [1, 13]: 0.11 % w/w
- Decomposition products (% w/w), relative to the amount of tasquinimod in capsule [1, 14]: 0.13 % w/w
- Decomposition products (% w/w), relative to the amount of tasquinimod in capsule [1, 15]: 0.16 % w/w
- Decomposition products (% w/w), relative to the amount of tasquinimod in capsule [1, 16]: 0.19 % w/w
- Decomposition products (% w/w), relative to the amount of tasquinimod in capsule [1, 17]: 0.27 % w/w
- Decomposition products (% w/w), relative to the amount of tasquinimod in capsule [1, 18]: 0.36 % w/w
- Decomposition products (% w/w), relative to the amount of tasquinimod in capsule [1, 19]: <0.05 % w/w
- Decomposition products (% w/w), relative to the amount of tasquinimod in capsule [1, 20]: <0.05 % w/w
- Decomposition products (% w/w), relative to the amount of tasquinimod in capsule [1, 21]: <0.05 % w/w
- Decomposition products (% w/w), relative to the amount of tasquinimod in capsule [1, 22]: 0.06 % w/w
- Decomposition products (% w/w), relative to the amount of tasquinimod in capsule [1, 23]: 0.09 % w/w
- Decomposition products (% w/w), relative to the amount of tasquinimod in capsule [1, 24]: 0.10 % w/w
- Decomposition products (% w/w), relative to the amount of tasquinimod in capsule [1, 25]: 0.15 % w/w
- Decomposition products (% w/w), relative to the amount of tasquinimod in capsule [1, 26]: 0.18 % w/w
- amount of compound III in capsules, relative to the amount of tasquinimod ([2]; 0.25 mg capsules of Example 10): 0.07 % w/w
- amount of compound III in capsules, relative to the amount of tasquinimod ([2]; 0.25 mg capsules of Example 13): 0.06 % w/w
- amount of compound III in capsules, relative to the amount of tasquinimod ([2]; 0.5 mg capsules of Example 7): 0.03 % w/w
- Decomposition products (% w/w), relative to the amount of tasquinimod in capsule ([2]; 0.5 mg capsules of Example 28): <0.05 % w/w
- amount of compound III in capsules, relative to the amount of tasquinimod ([2]; 1 mg capsules of Example 2): 0.01 % w/w
- amount of compound III in capsules, relative to the amount of tasquinimod ([2]; 1 mg capsules of Example 16): 0.02 % w/w
- Decomposition products (% w/w), relative to the amount of tasquinimod in capsule ([2]; 1.0 mg capsules of Example 29): <0.05 % w/w
